The text below walks through data of patent US20260109721A1, “IONIZABLE CATIONIC LIPIDS INCORPORATING SILICON: SYNTHESIS AND LNP FORMULATION” (priority 2023, published 2026).

This series has as its system HepG2 cell line. In words: In vitro toxicity study on HepG2 cell line (resazurin, viability and IC50). Type of series: cell-based, human. The note with it: for Viability (%) at different lipid concentrations, mean: HepG2 cells, 48 h post-treatment, relative to ethanol vehicle controls; for IC50: Homo sapiens, read-out: IC50 value, μM (on HepG2 cell). Here is the method:
The synthesized lipids were tested in term of in vitro transfection efficacy and toxicity on HeLa cells. In order to perform the mentioned biological tests, appropriate LNPs had to be formulated from the synthesized lipids. The formulation technique was different in Method A and B. The particle size, polydispersity index (PDI) and zeta potential of resulting LNPs were determined by means of Dynamic Light Scattering technique (DLS). Prior to biological testing the encapsulation efficiency (EE) of the loaded LNPs was determined by using RiboGreen RNA assay. In case of Method A Luc mRNA while in case of Method B GFP mRNA was transfected into the cells. In parallel with the transfection experiments, toxicity of the investigated LNPs was determined, in case of Method A resazurin assay while in case of Method B MTT assay was used. Additionally, the toxicity of the lipids was investigated on HepG2 cells and IC50 values were determined.
HepG2 cell line (human hepatocellular carcinoma) were maintained in DMEM medium supplemented with 10% FBS. Cell toxicity measurements were carried out in 384-well microtiter plates with 1000 cells seeded in each well. Test measurements were carried out in triplicate, and control measurements in quadruplicate. After an overnight incubation, the cells were treated with an increasing concentration of the test compounds (6.25, 12.5, 25, 50, 100, 200, 400, 800 μM). […] 48 h post-treatment, following visual inspection under an inverted microscope, cell viability was measured by resazurin assay. Viability of treated cells was calculated relative to that of ethanol vehicle controls. Concentration response curves (CRCs) were obtained and corresponding IC50 values were calculated where applicable and are shown in Table 9.
Resazurin reagent (Sigma-Aldrich) was dissolved in PBS (pH 7.4) at 0.15 mg/ml concentration, 0.22 μm filtered and aliquoted at −20° C., 10 μl resazurin stock solution was added to wells. After 5 hours incubation at 37° C. under 5% CO2 fluorescence (530 nm excitation/580 nm emission) was recorded on a multimode microplate reader.
(The colour change of resazurin is a common sign of viable cells or microbes.)

The mark [1] stands for this setting: lipid toxicity, HepG2, 48 h post-treatment, resazurin, 6.25-800 μM.

Where two headings read alike, the source gives them in different places. Where only a bound is given, the exact number is not on record here.

For the compound `CCCCCCCCCCCCCCCCOC(CCCCCCCCCCCCCCC)O[Si](C)(C)OCCCCCCN(CCO)CCO` (stereo not drawn) [Example 49, 3-(2-hydroxyethyl)-11,11-dimethyl-13-pentadecyl-10,12,14-trioxa-3-aza-11-silatriacontan-1-ol], the “Viability (%) at different lipid concentrations, mean” value (6.25 μM lipid, resazurin) is reported as 101.6%; the “Viability (%) at different lipid concentrations, mean” value (12.5 μM lipid, resazurin) came out at 100.3%; the “Viability (%) at different lipid concentrations, mean” value (25 μM lipid, resazurin) is given as 100.4%; the “Viability (%) at different lipid concentrations, mean” value (50 μM lipid, resazurin) stood at 101.0%; the “Viability (%) at different lipid concentrations, mean” value (100 μM lipid, resazurin) turned out to be 106.4%; the “Viability (%) at different lipid concentrations, mean” value (200 μM lipid, resazurin) is recorded as 118.4%. Also, the “Viability (%) at different lipid concentrations, mean” value is, setting by setting: (400 μM lipid, resazurin) 112.6%; (800 μM lipid, resazurin) 103.0%. Also, the IC50 under setting [1] is more than 800 µM.
For `CCCCCCCC/C=C\CCCCCCCC(OCC(CCCCCC)CCCCCCCC)O[Si](C)(C)OCCCCCCN(CCO)CCO` (stereo not drawn) [Example 50, (Z)-13-(heptadec-8-en-1-yl)-16-hexyl-3-(2-hydroxyethyl)-11,11-dimethyl-10,12,14-trioxa-3-aza-11-silatetracosan-1-ol], the “Viability (%) at different lipid concentrations, mean” value is 101.0% (6.25 μM lipid, resazurin); 97.6% (12.5 μM lipid, resazurin); 99.0% (25 μM lipid, resazurin); 97.9% (50 μM lipid, resazurin); 96.0% (100 μM lipid, resazurin); 100.0% (200 μM lipid, resazurin). Also, the “Viability (%) at different lipid concentrations, mean” value is listed as 96.5% (400 μM lipid, resazurin) and 86.8% (800 μM lipid, resazurin). For the same compound, the IC50 under setting [1] was more than 800 µM.
For `CCCCCCCC/C=C\CCCCCCCCOC(CC[C@@H](C)C1CCC2C3CCC4C[C@H](OC)CC[C@]4(C)C3CC[C@@]21C)O[Si](C)(C)OCCCCCCN(CCO)CCO` (stereo partly drawn) [Example 51, (Z)-3-(2-hydroxyethyl)-13-((3R)-3-((3R,10S,13R)-3-methoxy-10,13-dimethylhexadecahydro-1H-cyclopenta[a]phenanthren-17-yl)butyl)-11,11-dimethyl-10,12,14-trioxa-3-aza-11-siladotriacont-23-en-1-ol], the “Viability (%) at different lipid concentrations, mean” value is recorded as 98.6% (6.25 μM lipid, resazurin); 94.4% (12.5 μM lipid, resazurin); 96.3% (25 μM lipid, resazurin); 100.0% (50 μM lipid, resazurin); 109.9% (100 μM lipid, resazurin); 114.9% (200 μM lipid, resazurin). Also, the “Viability (%) at different lipid concentrations, mean” value is recorded as 102.9% (400 μM lipid, resazurin) and 98.6% (800 μM lipid, resazurin). The IC50 under setting [1] was more than 800 µM.
Take `CCCCC/C=C\C/C=C\CCCCCCCCOC(CC[C@@H](C)C1CCC2C3CCC4C[C@H](OC)CC[C@]4(C)C3CC[C@@]21C)O[Si](C)(C)OCCCCCCN(CCO)CCO` (stereo partly drawn) [Example 52, (23Z,26Z)-3-(2-hydroxyethyl)-13-((3R)-3-((3R,10S,13R)-3-methoxy-10,13-dimethylhexadecahydro-1H-cyclopenta[a]phenanthren-17-yl)butyl)-11,11-dimethyl-10,12,14-trioxa-3-aza-11-siladotriaconta-23,26-dien-1-ol]: the “Viability (%) at different lipid concentrations, mean” value is, setting by setting: (6.25 μM lipid, resazurin) 101.2%; (12.5 μM lipid, resazurin) 101.1%; (25 μM lipid, resazurin) 104.2%; (50 μM lipid, resazurin) 120.8%; (100 μM lipid, resazurin) 112.2%; (200 μM lipid, resazurin) 76.7%. Besides, the “Viability (%) at different lipid concentrations, mean” value runs as follows: (400 μM lipid, resazurin) 5.3%; (800 μM lipid, resazurin) −0.7%. Also, the IC50 under setting [1] is 233 µM.
`CCCCC/C=C\C/C=C\CCCCCCCCOC(CCCCCCC/C=C\C/C=C\CCCCC)O[Si](C)(C)OCCCCCCN1CCOCC1` (stereo not drawn) [Example 55, 4-((20Z,23Z)-10-((8Z,11Z)-heptadeca-8,11-dien-1-yl)-8,8-dimethyl-7,9,11-trioxa-8-silanonacosa-20,23-dien-1-yl)morpholine]: the “Viability (%) at different lipid concentrations, mean” value was 91.7% (6.25 μM lipid, resazurin); 90.4% (12.5 μM lipid, resazurin); 92.4% (25 μM lipid, resazurin); 90.9% (50 μM lipid, resazurin); 94.1% (100 μM lipid, resazurin); 90.7% (200 μM lipid, resazurin). For the same compound, the “Viability (%) at different lipid concentrations, mean” value runs as follows: (400 μM lipid, resazurin) 7.9%; (800 μM lipid, resazurin) 1.9%. The IC50 under setting [1] stood at 316 µM.
Turning to `CCCCC/C=C\C/C=C\CCCCCCCCOC(CCCCCCC/C=C\C/C=C\CCCCC)O[Si](C)(C)OCCCCCCN1CCCCC1` (stereo not drawn) [Example 57, 1-((20Z,23Z)-10-((8Z,11Z)-heptadeca-8,11-dien-1-yl)-8,8-dimethyl-7,9,11-trioxa-8-silanonacosa-20,23-dien-1-yl)piperidine], the “Viability (%) at different lipid concentrations, mean” value stood at 97.2% (6.25 μM lipid, resazurin); 93.7% (12.5 μM lipid, resazurin); 93.2% (25 μM lipid, resazurin); 94.3% (50 μM lipid, resazurin); 90.5% (100 μM lipid, resazurin); 86.9% (200 μM lipid, resazurin). In addition, the “Viability (%) at different lipid concentrations, mean” value worked out at 47.6% (400 μM lipid, resazurin) and 4.6% (800 μM lipid, resazurin). The half-inhibitory concentration (IC50) (HepG2, 48 h) is 401 µM.
As for `CCCCC/C=C\C/C=C\CCCCCCCCOC(CCCCCCC/C=C\C/C=C\CCCCC)O[Si](C)(C)OCCCCCCN(C)CC(O)CO` (stereo not drawn) [Example 59, (24Z,27Z)-14-((8Z,11Z)-heptadeca-8,11-dien-1-yl)-4,12,12-trimethyl-11,13,15-trioxa-4-aza-12-silatritriaconta-24,27-diene-1,2-diol], the “Viability (%) at different lipid concentrations, mean” value by setting is: (6.25 μM lipid, resazurin) 97.3%; (12.5 μM lipid, resazurin) 100.1%; (25 μM lipid, resazurin) 112.6%; (50 μM lipid, resazurin) 112.9%; (100 μM lipid, resazurin) 76.9%; (200 μM lipid, resazurin) 29.0%. The “Viability (%) at different lipid concentrations, mean” value was 18.1% (400 μM lipid, resazurin) and 8.3% (800 μM lipid, resazurin). In addition, under setting [1], the IC50 turned out to be 149 µM.
As to `CCCCC/C=C\C/C=C\CCCCCCCCOC(CCCCCCC/C=C\C/C=C\CCCCC)O[Si](C)(C)OCCCCCCN(C)CCCCO` (stereo not drawn) [Example 60, (25Z,28Z)-15-((8Z,11Z)-heptadeca-8,11-dien-1-yl)-5,13,13-trimethyl-12,14,16-trioxa-5-aza-13-silatetratriaconta-25,28-dien-1-ol], the “Viability (%) at different lipid concentrations, mean” value (6.25 μM lipid, resazurin) is 100.0%; the “Viability (%) at different lipid concentrations, mean” value (12.5 μM lipid, resazurin) worked out at 99.3%; the “Viability (%) at different lipid concentrations, mean” value (25 μM lipid, resazurin) came to 98.4%; the “Viability (%) at different lipid concentrations, mean” value (50 μM lipid, resazurin) is listed as 107.2%; the “Viability (%) at different lipid concentrations, mean” value (100 μM lipid, resazurin) is 117.1%; the “Viability (%) at different lipid concentrations, mean” value (200 μM lipid, resazurin) was 101.1%. The “Viability (%) at different lipid concentrations, mean” value by setting is: (400 μM lipid, resazurin) 73.6%; (800 μM lipid, resazurin) 35.2%. For the same compound, under setting [1], the concentration for half-maximal inhibition (IC50) turned out to be 310 µM.
In the case of `CCCCC/C=C\C/C=C\CCCCCCCCOC(CCCCCCC/C=C\C/C=C\CCCCC)O[Si](C)(C)OCCCCCCN(CCCCO)CCCCO` (stereo not drawn) [Example 62, (25Z,28Z)-15-((8Z,11Z)-heptadeca-8,11-dien-1-yl)-5-(4-hydroxybutyl)-13,13-dimethyl-12,14,16-trioxa-5-aza-13-silatetratriaconta-25,28-dien-1-ol], the “Viability (%) at different lipid concentrations, mean” value worked out at 100.4% (6.25 μM lipid, resazurin); 110.2% (12.5 μM lipid, resazurin); 122.5% (25 μM lipid, resazurin); 116.9% (50 μM lipid, resazurin); 68.2% (100 μM lipid, resazurin); 13.2% (200 μM lipid, resazurin). The “Viability (%) at different lipid concentrations, mean” value by setting is: (400 μM lipid, resazurin) −0.6%; (800 μM lipid, resazurin) −0.7%. Under setting [1], the half-maximal inhibitory concentration (IC50) was found to be 113 µM.

What is called IC50 is the midpoint of a concentration-inhibition curve.
